Test results from patent US20230257351A1, “SUBSTITUTED N-[…] HAVING P2X4 RECEPTOR ANTAGONISTIC ACTIVITY” (Bayer Aktiengesellschaft, priority 2020, published 2023).
pIC50: −log10 of the molar value.

Target: T1, human P2X4 (Homo sapiens, UniProt Q99571)
T1 construct: expressed in transfected cells
T1 sequence (Q99571 1-388): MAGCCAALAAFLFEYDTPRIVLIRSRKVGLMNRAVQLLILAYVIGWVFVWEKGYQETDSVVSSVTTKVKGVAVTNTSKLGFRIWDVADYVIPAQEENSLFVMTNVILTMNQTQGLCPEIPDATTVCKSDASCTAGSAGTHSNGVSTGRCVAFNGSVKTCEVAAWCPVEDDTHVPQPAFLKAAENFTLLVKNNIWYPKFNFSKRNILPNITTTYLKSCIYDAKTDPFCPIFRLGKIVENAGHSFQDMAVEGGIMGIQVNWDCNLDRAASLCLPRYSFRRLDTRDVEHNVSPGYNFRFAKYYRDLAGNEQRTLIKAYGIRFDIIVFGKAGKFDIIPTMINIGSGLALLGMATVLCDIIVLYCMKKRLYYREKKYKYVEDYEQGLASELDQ
Assay: Human P2X4 HEK Cell FLIPR Assay
Assay type: cell-based
Details: HEK293 stably expressing human P2X4, agonist Bz-ATP 3 μM (EC80); for pIC50: read-out: Human P2X4 HEK Cells (FLIPR Assay) avg IC50
Procedure: Compounds were tested on a HEK293 cell line stably expressing human P2X4. Cells were cultured on poly-D-lysine-coated 384-well plates at a density of 15,000 cells/well and incubated overnight at 37° C., 5% CO2. P2X4 function was assessed by measuring intracellular calcium fluxes caused by Benzoylbenzoyl-ATP (Bz-ATP) using the calcium-chelating dye Fluo8-AM (Molecular Devices) with the Fluorescent Imaging Plate Reader Tetra (FLIPR^Tetra; Molecular Devices CA). On the day of the assay, the medium was removed and the cells were incubated for 30 min at 37° C. and 5% CO2 in 30 μl of dye buffer (Hank's balanced salt solution, 10 mM HEPES, 1.8 mM CaCl2, 1 mM MgCl2, 2 mM probenecid, 5 mM D-glucose monohydrate, 5 μM Fluo8-AM, pH=7.4). Compounds diluted in probenecid buffer (Hank's balanced salt solution, 10 mM HEPES, 1.8 mM CaCl2, 1 mM MgCl2, 2 mM probenecid, 5 mM D-glucose monohydrate, pH=7.4) at ten concentrations ranging from 25 μM to 1 nM (final concentration) were dispensed and incubated for 30 min at room temperature. […] The final assay volume was 50 μl and final DMSO concentration was 0.5%.
The fluorescence intensity reflecting intracellular calcium changes was recorded before and after Bz-ATP addition, at an excitation and emission wavelengths of 470-495 nm and 515-575 nm respectively.
The compounds were tested in triplicates and fluorescence intensity raw data normalized to the agonist control and fitted to the four-parameter logistic equation:
Y=Bottom+(Top−Bottom)/(1+10^((Log IC50−X)*HillSlope))
Assay plate acceptance was based on the signal window (S/B)[…] and the reference compound pIC50 within ±3σ the mean of historic pIC50 of the compound. Failure to meet two of the three criteria determined exclusion of the plate's results.

## CC(=O)N(c1cc(NC(=O)Cc2ccccc2Cl)ccn1)c1cccc(F)c1F [Example 122, N-{4-[2-(2-chlorophenyl)acetamido]pyridin-2-yl}-N-(2,3-difluorophenyl)acetamide]
  Human P2X4 HEK Cells (FLIPR Assay) avg Efficacy: 95%
  pIC50: 6.45

## CC(=O)N(c1ccc(F)c(F)c1)c1cc(NC(=O)Cc2ccccc2Cl)cnn1 [Example 199, N-{5-[2-(2-chlorophenyl)acetamido]pyridazin-3-yl}-N-(3,4-difluorophenyl)acetamide]
  Human P2X4 HEK Cells (FLIPR Assay) avg Efficacy: 86%
  pIC50: 6.35

## CC(=O)N(c1ccc(F)cc1)c1cc(NC(=O)Cc2c(Cl)cccc2Cl)cnn1 [Example 193, N-{5-[2-(2,6-dichlorophenyl)acetamido]pyridazin-3-yl}-N-(4-fluorophenyl)acetamide]
  Human P2X4 HEK Cells (FLIPR Assay) avg Efficacy: 93%
  pIC50: 6.06

## COc1c(F)cc(N(C(C)=O)c2cc(NC(=O)Cc3ccccc3Cl)ccn2)cc1F [Example 96, N-{4-[2-(2-chlorophenyl)acetamido]pyridin-2-yl}-N-(3,5-difluoro-4-methoxyphenyl)acetamide]
  Human P2X4 HEK Cells (FLIPR Assay) avg Efficacy: 89%
  pIC50: 6.44

## CC(=O)N(c1ccc(F)c(F)c1)c1cc(NC(=O)Cc2c(F)cccc2Cl)cnn1 [Example 203, N-{5-[2-(2-chloro-6-fluorophenyl)acetamido]pyridazin-3-yl}-N-(3,4-difluorophenyl)acetamide]
  Human P2X4 HEK Cells (FLIPR Assay) avg Efficacy: 86%
  pIC50: 6.13

## CC(=O)N(c1cc(F)cc(C#N)c1)c1cc(NC(=O)Cc2ccccc2Cl)ccn1 [Example 145, N-{4-[2-(2-Chlorphenyl)acetamido]pyridin-2-yl}-N-(3-cyan-5-fluorphenyl)acetamide]
  Human P2X4 HEK Cells (FLIPR Assay) avg Efficacy: 98%
  pIC50: 6.63

## CC(=O)N(c1cc(NC(=O)Cc2ccc(F)cc2Cl)ccn1)c1ccc(F)cc1Cl [Example 151, N-(2-Chlor-4-fluorphenyl)-N-{4-[2-(2-chlor-4-fluorphenyl)acetamido]pyridin-2-yl}acetamide]
  Human P2X4 HEK Cells (FLIPR Assay) avg Efficacy: 104%
  pIC50: 6.45

## CC(=O)N(c1cc(NC(=O)Cc2c(Cl)cccc2Cl)ccn1)c1ccc(C)cc1C [Example 173, N-{4-[2-(2,6-Dichlorphenyl)acetamido]pyridin-2-yl}-N-(2,4-dimethylphenyl)acetamide]
  Human P2X4 HEK Cells (FLIPR Assay) avg Efficacy: 104%
  pIC50: 6.28

## CC(=O)N(c1ccc(OC(F)F)cc1)c1cc(NC(=O)Cc2c(Cl)cccc2Cl)ccn1 [Example 49, N-{4-[2-(2,6-dichlorophenyl)acetamido]pyridin-2-yl}-N-[4-(difluoromethoxy)phenyl]acetamide]
  Human P2X4 HEK Cells (FLIPR Assay) avg Efficacy: 100%
  pIC50: 6.28

## CC(=O)N(c1ccc(C)c(Cl)c1)c1cc(NC(=O)Cc2c(F)cccc2Cl)ccn1 [Example 183, N-{4-[2-(2-Chlor-6-fluorphenyl)acetamido]pyridin-2-yl}-N-(3-chlor-4-methylphenyl)acetamide]
  Human P2X4 HEK Cells (FLIPR Assay) avg Efficacy: 101%
  pIC50: 6.22

## COc1cc(F)cc(N(C(C)=O)c2cc(NC(=O)Cc3c(Cl)cccc3Cl)ccn2)c1 [Example 162, N-{4-[2-(2,6-Dichlorphenyl)acetamido]pyridin-2-yl}-N-(3-fluor-5-methoxyphenyl)acetamide]
  Human P2X4 HEK Cells (FLIPR Assay) avg Efficacy: 104%
  pIC50: 6.24

## CC(=O)N(c1cc(NC(=O)Cc2ccc(F)cc2Cl)ccn1)c1ccccc1Cl [Example 107, N-{4-[2-(2-chloro-4-fluorophenyl)acetamido]pyridin-2-yl}-N-(2-chlorophenyl)acetamide]
  Human P2X4 HEK Cells (FLIPR Assay) avg Efficacy: 98%
  pIC50: 6.26

## CC(=O)N(c1ccc(C)cc1)c1cc(NC(=O)Cc2c(Cl)cccc2Cl)ccn1 [Example 46, N-{4-[2-(2,6-dichlorophenyl)acetamido]pyridin-2-yl}-N-(4-methylphenyl)acetamide]
  Human P2X4 HEK Cells (FLIPR Assay) avg Efficacy: 103%
  pIC50: 6.26

## CC(=O)N(c1cc(C)cc(C#N)c1)c1cc(NC(=O)Cc2ccc(F)cc2Cl)ccn1 [Example 178, N-{4-[2-(2-Chlor-4-fluorphenyl)acetamido]pyridin-2-yl}-N-(3-cyan-5-methylphenyl)acetamide]
  Human P2X4 HEK Cells (FLIPR Assay) avg Efficacy: 99%
  pIC50: 6.21

## CC(=O)N(c1cc(F)c(C)c(F)c1)c1cc(NC(=O)Cc2c(Cl)cccc2Cl)ccn1 [Example 95, N-{4-[2-(2,6-dichlorophenyl)acetamido]pyridin-2-yl}-N-(3,5-difluoro-4-methylphenyl)acetamide]
  Human P2X4 HEK Cells (FLIPR Assay) avg Efficacy: 100%
  pIC50: 6.16

## CC(=O)N(c1ccc(S(C)(=O)=O)c(Cl)c1)c1cc(NC(=O)Cc2c(Cl)cccc2Cl)ccn1 [Example 155, N-[3-Chlor-4-(methylsulfonyl)phenyl]-N-{4-[2-(2,6-dichlorphenyl)acetamido]pyridin-2-yl)acetamide]
  Human P2X4 HEK Cells (FLIPR Assay) avg Efficacy: 100%
  pIC50: 6.47

## CC(=O)N(c1cc(NC(=O)Cc2c(Cl)cccc2Cl)ccn1)c1cccc(F)c1F [Example 125, N-{4-[2-(2,6-dichlorophenyl)acetamido]pyridin-2-yl}-N-(2,3-difluorophenyl)acetamide]
  Human P2X4 HEK Cells (FLIPR Assay) avg Efficacy: 95%
  pIC50: 6.24

## CC(=O)N(c1cc(F)cc(Cl)c1)c1cc(NC(=O)Cc2ccccc2Cl)ccn1 [Example 136, N-(3-chloro-5-fluorophenyl)-N-{4-[2-(2-chlorophenyl)acetamido]pyridin-2-yl}acetamide]
  Human P2X4 HEK Cells (FLIPR Assay) avg Efficacy: 94%
  pIC50: 6.51

## CC(=O)N(c1cc(NC(=O)Cc2c(Cl)cccc2Cl)ccn1)c1ccccc1F [Example 118, N-{4-[2-(2,6-dichlorophenyl)acetamido]pyridin-2-yl}-N-(2-fluorophenyl)acetamide]
  Human P2X4 HEK Cells (FLIPR Assay) avg Efficacy: 94%
  pIC50: 6.26

## CC(=O)N(c1cc(F)cc(Cl)c1)c1cc(NC(=O)Cc2c(F)cccc2Cl)ccn1 [Example 140, N-(3-chloro-5-fluorophenyl)-N-{4-[2-(2-chloro-6-fluorophenyl)acetamido]pyridin-2-yl)acetamide]
  Human P2X4 HEK Cells (FLIPR Assay) avg Efficacy: 105%
  pIC50: 6.57

## CC(=O)N(c1cc(F)cc(C#N)c1)c1cc(NC(=O)Cc2ccc(F)cc2Cl)ccn1 [Example 149, N-{4-[2-(2-Chlor-4-fluorphenyl)acetamido]pyridin-2-yl}-N-(3-cyan-5-fluorphenyl)acetamide]
  Human P2X4 HEK Cells (FLIPR Assay) avg Efficacy: 100%
  pIC50: 6.35

## CC(=O)N(c1cc(NC(=O)Cc2ccccc2Cl)ccn1)c1ccccc1Cl [Example 106, N-(2-chlorophenyl)-N-{4-[2-(2-chlorophenyl)acetamido]pyridin-2-yl}acetamide]
  Human P2X4 HEK Cells (FLIPR Assay) avg Efficacy: 95%
  pIC50: 6.12

## CC(=O)N(c1ccc(Cl)c(C#N)c1)c1cc(NC(=O)Cc2cccc(F)c2Cl)ccn1 [Example 18, N-(4-chloro-3-cyanophenyl)-N-{4-[2-(2-chloro-3-fluorophenyl)acetamido]pyridin-2-yl}acetamide]
  Human P2X4 HEK Cells (FLIPR Assay) avg Efficacy: 99%
  pIC50: 6.36

## CC(=O)N(c1cc(F)cc(F)c1)c1cc(NC(=O)Cc2cccc(F)c2Cl)cnn1 [Example 206, N-{5-[2-(2-chloro-3-fluorophenyl)acetamido]pyridazin-3-yl}-N-(3,5-difluorophenyl)acetamide]
  Human P2X4 HEK Cells (FLIPR Assay) avg Efficacy: 93%
  pIC50: 6.35
